Test system: 301 cancer cell lines from different tumor types
Test: 2D cell viability inhibition assay, broad cancer cell line panel (OncoPanel; CellTiter-Glo)
Assay type: cell-based
Parameters: key to Emax: % of DMSO control (minimum response over dose range); AUC: scale not given here
Conditions: for AUC / Emax: 168 hours; for Emax: in % (unit assumed)
Procedure: In a larger screening study, compound 1 was evaluated across a broad cancer cell line panel (OncoPanel; HD Biosciences) composed of 301 cancer cell lines from different tumor types.
2D cell viability inhibition assays were performed in multiwell plates seeded with cells from the panel. After seeding, the plates were cultured overnight in a humidified incubator at 37° C. to promote adherence. Assays were initiated in individual wells by adding either DMSO as a vehicle control, growth media as a blank, or serially diluted compound 1 (10 μM to 0.0005 μM with 1:3 serial dilution). Cultures were incubated for 168 hours after which the number of viable cells in each test well was assessed using the CellTiter-Glo® Luminescent Cell Viability Assay. Luminescence readouts were performed using an EnVision® Multilabel Reader and the compound 1 readouts were normalized to the DMSO control readouts, expressed as a percent of the control. Outliers were flagged out by visual inspection. Percent of control was plotted against the corresponding compound 1 concentration and the absolute IC50 value was determined using four-parameter logistic non-linear regression as the concentration where inhibition was 50% of the control. […] Emax was recorded as the minimum in y with the compound dose range. […] The sensitive/moderate/resistant calls for each cell line was determined by visually inspecting the resulting clustering dendrogram. All the analyses were done in R Core Team.

[1] = 168 h, HUH28 (biliary tract, NS)
[2] = 168 h, KG1 (haematopoietic and lymphoid tissue, acute myeloid leukaemia)
[3] = 168 h, KURAMOCHI (ovary, undifferentiated carcinoma)
[4] = 168 h, NMCG1 (central nervous system, NS)
[5] = 168 h, T24 (urinary tract, transitional cell carcinoma)
[6] = 168 h, TE1 (oesophagus, squamous cell carcinoma)
[7] = 168 h, TE8 (oesophagus, squamous cell carcinoma)
[8] = BT20 (breast, ductal carcinoma)
[9] = BT474 (breast, ductal carcinoma)
[10] = C2BBE1 (large intestine, adenocarcinoma)
[11] = CAL27 (upper aerodigestive tract, squamous cell carcinoma)
[12] = CALU1 (lung, squamous cell carcinoma)
[13] = CAPAN2 (pancreas, ductal carcinoma)
[14] = CCFSTTG1 (central nervous system, astrocytoma)
[15] = DAOY (central nervous system, NS)
[16] = DMS53 (lung, small cell carcinoma)
[17] = HCC38 (breast, ductal carcinoma)
[18] = HCC1419 (breast, ductal carcinoma)
[19] = HCC1937 (breast, ductal carcinoma)
[20] = Homo sapiens, A204, 168 h, A204 (soft tissue, NS)
[21] = Homo sapiens, BT-20, 168 h, BT20 (breast, ductal carcinoma)
[22] = Homo sapiens, BT-474, 168 h, BT474 (breast, ductal carcinoma)
[23] = Homo sapiens, C2BBe1, 168 h, C2BBE1 (large intestine, adenocarcinoma)
[24] = Homo sapiens, CAL-27, 168 h, CAL27 (upper aerodigestive tract, squamous cell carcinoma)
[25] = Homo sapiens, CCF-STTG1, 168 h, CCFSTTG1 (central nervous system, astrocytoma)
[26] = Homo sapiens, Calu-1, 168 h, CALU1 (lung, squamous cell carcinoma)
[27] = Homo sapiens, Calu-3, 168 h, CALU3 (lung, adenocarcinoma)
[28] = Homo sapiens, Capan-2, 168 h, CAPAN2 (pancreas, ductal carcinoma)
[29] = Homo sapiens, DMS-53, 168 h, DMS53 (lung, small cell carcinoma)
[30] = Homo sapiens, Daoy, 168 h, DAOY (central nervous system, NS)
[31] = Homo sapiens, G-361, 168 h, G361 (skin, NS)
[32] = Homo sapiens, HCC38, 168 h, HCC38 (breast, ductal carcinoma)
[33] = Homo sapiens, HCC827, 168 h, HCC827 (lung, adenocarcinoma)
[34] = Homo sapiens, HCC1419, 168 h, HCC1419 (breast, ductal carcinoma)
[35] = Homo sapiens, HCC1428, 168 h, HCC1428 (breast, NS)
[36] = Homo sapiens, HCC1937, 168 h, HCC1937 (breast, ductal carcinoma)
[37] = Homo sapiens, HT-144, 168 h, HT144 (skin, NS)
[38] = Homo sapiens, Hs 695T, 168 h, HS695T (skin, NS)
[39] = Homo sapiens, KYSE-70, 168 h, KYSE70 (oesophagus, squamous cell carcinoma)
[40] = Homo sapiens, Kasumi 1, 168 h, KASUMI1 (haematopoietic and lymphoid tissue, acute myeloid leukaemia)
[41] = Homo sapiens, Lu-99, 168 h, LU99 (lung, large cell carcinoma)
[42] = Homo sapiens, MDA-MB-157, 168 h, MDAMB157 (breast, ductal carcinoma)
[43] = Homo sapiens, MDA-MB-175-VII, 168 h, MDAMB 175 VII (breast, ductal carcinoma)
[44] = Homo sapiens, MDA-MB-231, 168 h, MDAMB231 (breast, NS)
[45] = Homo sapiens, MDA-MB-361, 168 h, MDAMB361 (breast, NS)
[46] = Homo sapiens, MDA-MB-415, 168 h, MDAMB415 (breast, NS)
[47] = Homo sapiens, MDA-MB-436, 168 h, MDAMB436 (breast, NS)
[48] = Homo sapiens, MDA-MB-468, 168 h, MDAMB468 (breast, NS)
[49] = Homo sapiens, Malme-3M, 168 h, MALME3M (skin, NS)
[50] = Homo sapiens, MeWo, 168 h, MEWO (skin, NS)
[51] = Homo sapiens, NCI-H441, 168 h, NCIH441 (lung, adenocarcinoma)
[52] = Homo sapiens, NCI-H596, 168 h, NCIH596 (lung, mixed adenosquamous carcinoma)
[53] = Homo sapiens, NCI-H1395, 168 h, NCIH1395 (lung, adenocarcinoma)
[54] = Homo sapiens, NCI-H1563, 168 h, NCIH1563 (lung, adenocarcinoma)
[55] = Homo sapiens, NCI-H1573, 168 h, NCIH1573 (lung, adenocarcinoma)

CC(C)c1ccc(N(C)c2ccc3c(c2)OCC[C@H]3CNc2cnccc2C(=O)O)cc1 [Compound 1, 3-({[(4R)-7-{methyl[4-(propan-2-yl)phenyl]amino}-3,4-dihydro-2H-1-benzopyran-4-yl]methyl}amino)pyridine-4-carboxylic acid]
EC50 (168 h, HS688AT (skin, NS)): ≥ 10 µM | IC50 (168 h, HS688AT (skin, NS)): ≥ 10 µM | EC50 (168 h, HS739T (breast, NS)): ≥ 10 µM | IC50 (168 h, HS739T (breast, NS)): ≥ 10 µM | EC50 (168 h, HS839T (skin, NS)): ≥ 10 µM | IC50 (168 h, HS839T (skin, NS)): ≥ 10 µM | EC50 (168 h, HS852T (skin, NS)): ≥ 10 µM | IC50 (168 h, HS852T (skin, NS)): ≥ 10 µM | EC50 [1]: ≥ 10 µM | IC50 [1]: ≥ 10 µM | EC50 [2]: ≥ 10 µM | IC50 [2]: ≥ 10 µM | EC50 [3]: ≥ 10 µM | IC50 [3]: ≥ 10 µM | EC50 [4]: ≥ 10 µM | IC50 [4]: ≥ 10 µM | EC50 (168 h, SKMEL31 (skin, NS)): ≥ 10 µM | IC50 (168 h, SKMEL31 (skin, NS)): ≥ 10 µM | EC50 [5]: ≥ 10 µM | IC50 [5]: ≥ 10 µM | EC50 [6]: ≥ 10 µM | IC50 [6]: ≥ 10 µM | EC50 [7]: ≥ 10 µM | IC50 [7]: ≥ 10 µM | AUC (A204 (soft tissue, NS)): 0.7136 | Emax (A204 (soft tissue, NS)): 58.91 | AUC [8]: 0.9117 | Emax [8]: 78.79 | AUC [9]: 0.7206 | Emax [9]: 53.88 | AUC [10]: 0.8303 | Emax [10]: 59.34 | AUC [11]: 0.8335 | Emax [11]: 74.68 | AUC [12]: 1.217 | Emax [12]: 118.4694 | AUC (CALU3 (lung, adenocarcinoma)): 0.7277 | Emax (CALU3 (lung, adenocarcinoma)): 50.88 | AUC [13]: 0.8808 | Emax [13]: 75.02 | AUC [14]: 0.879 | Emax [14]: 78.9 | AUC [15]: 0.9684 | Emax [15]: 83.4 | AUC [16]: 0.7426 | Emax [16]: 49.07 | AUC (G361 (skin, NS)): 1.044 | Emax (G361 (skin, NS)): 89.52 | AUC [17]: 0.9864 | Emax [17]: 93.61 | AUC (HCC827 (lung, adenocarcinoma)): 0.8814 | Emax (HCC827 (lung, adenocarcinoma)): 74.84 | AUC [18]: 0.7201 | Emax [18]: 52.42 | AUC (HCC1428 (breast, NS)): 0.7818 | Emax (HCC1428 (breast, NS)): 59.9889 | AUC [19]: 0.9094 | Emax [19]: 80.9493 | AUC (HS688AT (skin, NS)): 1.105 | Emax (HS688AT (skin, NS)): 98.47 | AUC (HS695T (skin, NS)): 0.9238 | Emax (HS695T (skin, NS)): 74.11 | AUC (HS739T (breast, NS)): 0.8686 | Emax (HS739T (breast, NS)): 78.35 | AUC (HS839T (skin, NS)): 1.097 | Emax (HS839T (skin, NS)): 101.2434 | AUC (HS852T (skin, NS)): 0.883 | Emax (HS852T (skin, NS)): 78.51 | AUC (HT144 (skin, NS)): 0.8912 | Emax (HT144 (skin, NS)): 81.61 | AUC (HUH28 (biliary tract, NS)): 0.9862 | Emax (HUH28 (biliary tract, NS)): 92.15 | EC50 [20]: ≥ 10 µM | IC50 [20]: ≥ 10 µM | EC50 [21]: ≥ 10 µM | IC50 [21]: ≥ 10 µM | EC50 [22]: ≥ 10 µM | IC50 [22]: ≥ 10 µM | EC50 [23]: ≥ 10 µM | IC50 [23]: ≥ 10 µM | EC50 [24]: ≥ 10 µM | IC50 [24]: ≥ 10 µM | EC50 [25]: ≥ 10 µM | IC50 [25]: ≥ 10 µM | EC50 [26]: ≥ 10 µM | IC50 [26]: ≥ 10 µM | EC50 [27]: ≥ 10 µM | IC50 [27]: ≥ 10 µM | EC50 [28]: ≥ 10 µM | IC50 [28]: ≥ 10 µM | EC50 [29]: ≥ 10 µM | IC50 [29]: ≥ 10 µM | EC50 [30]: ≥ 10 µM | IC50 [30]: ≥ 10 µM | EC50 [31]: ≥ 10 µM | IC50 [31]: ≥ 10 µM | EC50 [32]: ≥ 10 µM | IC50 [32]: ≥ 10 µM | EC50 [33]: ≥ 10 µM | IC50 [33]: ≥ 10 µM | EC50 [34]: ≥ 10 µM | IC50 [34]: ≥ 10 µM | EC50 [35]: ≥ 10 µM | IC50 [35]: ≥ 10 µM | EC50 [36]: ≥ 10 µM | IC50 [36]: ≥ 10 µM | EC50 [37]: ≥ 10 µM | IC50 [37]: ≥ 10 µM | EC50 [38]: ≥ 10 µM | IC50 [38]: ≥ 10 µM | EC50 [39]: ≥ 10 µM | IC50 [39]: ≥ 10 µM | EC50 [40]: ≥ 10 µM | IC50 [40]: ≥ 10 µM | EC50 [41]: ≥ 10 µM | IC50 [41]: ≥ 10 µM | EC50 [42]: ≥ 10 µM | IC50 [42]: ≥ 10 µM | EC50 [43]: ≥ 10 µM | IC50 [43]: ≥ 10 µM | EC50 [44]: ≥ 10 µM | IC50 [44]: ≥ 10 µM | EC50 [45]: ≥ 10 µM | IC50 [45]: ≥ 10 µM | EC50 [46]: ≥ 10 µM | IC50 [46]: ≥ 10 µM | EC50 [47]: ≥ 10 µM | IC50 [47]: ≥ 10 µM | EC50 [48]: ≥ 10 µM | IC50 [48]: ≥ 10 µM | EC50 [49]: ≥ 10 µM | IC50 [49]: ≥ 10 µM | EC50 [50]: ≥ 10 µM | IC50 [50]: ≥ 10 µM | EC50 [51]: ≥ 10 µM | IC50 [51]: ≥ 10 µM | EC50 [52]: ≥ 10 µM | IC50 [52]: ≥ 10 µM | EC50 [53]: ≥ 10 µM | IC50 [53]: ≥ 10 µM | EC50 [54]: ≥ 10 µM | IC50 [54]: ≥ 10 µM | EC50 [55]: ≥ 10 µM | IC50 [55]: ≥ 10 µM
